# From patent US20210221784A1, “COMPOUNDS AND COMPOSITIONS FOR THE TREATMENT OF PAIN” (Université de Strasbourg, priority 2018, published 2021)
# pIC50: −log10 of the molar value.
# Legend:
# hNPFF2R = molecular target: T1, hNPFF2R (Homo sapiens, UniProt Q9Y5X5); assay: Glo Sensor cAMP assay in HEK-293 expressing hNPFF2R; assay type: cell-based; conditions: cells expressing hNPFF2R; forskolin 0.5 μM
# T1 construct: expressed in transfected cells
# Description: The functional characterization of the selected compounds was performed by Glo Sensor cAMP kinetic assay, a validated approach for measuring Gαi/s activation by GPCRs (DiRaddo et al., 2014; Gilissen et al., 2015). HEK-Glo cells expressing either NPFF1 or NPFF2 receptors were suspended (10^6 cells per mF) in physiological Hepes buffer (10 mM HEPES, 0.4 mM NaH2PO4, 137.5 mM NaCl, 1.25 mM MgCl2, 1.25 mM CaCl2, 6 mM KCl, 10 mM glucose and 1 mg/mF bovine serum albumin, pH 7.4) supplemented with 1 mM D-Fuciferine. After equilibration for 2 h at 25° C., luminescence levels were recorded in real time in 96-well plates using a Flexstation^R 3 (Molecular Devices, Sunnyvale Calif., USA). Non-specific effect of the different compounds was evaluated in HEK-Glo cells without any recombinant human RF-amide receptors. To test the agonist activity on NPFF1R and NPFF2R, compounds were injected 15 minutes before addition of forskolin (0.5 μM) and readings were pursued for 90 minutes. […] According to their preferential coupling to Gi/o proteins, the stimulation of NPFF1R and NPFF2R by agonists was monitored as a dose-dependent reduction in steady-state luminescence levels, reflecting the inhibition of forskolin-induced cAMP accumulation. […]
# [1] = molecular target: T2, human NPFFR1 (hNPFFR1) receptor (Homo sapiens, UniProt Q9GZQ6); assay: Human NPFFR1 evaluation using BRET biosensors in HEK-293 T cells; assay type: cell-based; conditions: hNPFFR1 in HEK-293 T cells, stimulated by EC80 RFRP-3, read-out: IC50 of antagonist activity
# T2 construct: expressed in transfected cells; host or cells: HEK-293 T cells, transient co-transfection
# Summary of the method: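 HEK-293 T cells transiently co-expressing hNPFFR1, GαoB and a Gi-effector BRET biosensor pair; agonist read after 10 min compound alone, then antagonism after EC80 RFRP-3 for 10 min. IC50 from 20-point curves over 6 logs, duplicates in two independent experiments.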
# C57BF6/N male mice = assay: Morphine-induced hyperalgesia and tolerance, tail immersion test; assay type: in vivo
# [2] = system: NPFFR1 KO and wild-type littermates; assay: Morphine-induced hyperalgesia and tolerance in NPFF1R knockout mice and WT littermates; assay type: in vivo
# T2 sequence (Q9GZQ6 whole entry): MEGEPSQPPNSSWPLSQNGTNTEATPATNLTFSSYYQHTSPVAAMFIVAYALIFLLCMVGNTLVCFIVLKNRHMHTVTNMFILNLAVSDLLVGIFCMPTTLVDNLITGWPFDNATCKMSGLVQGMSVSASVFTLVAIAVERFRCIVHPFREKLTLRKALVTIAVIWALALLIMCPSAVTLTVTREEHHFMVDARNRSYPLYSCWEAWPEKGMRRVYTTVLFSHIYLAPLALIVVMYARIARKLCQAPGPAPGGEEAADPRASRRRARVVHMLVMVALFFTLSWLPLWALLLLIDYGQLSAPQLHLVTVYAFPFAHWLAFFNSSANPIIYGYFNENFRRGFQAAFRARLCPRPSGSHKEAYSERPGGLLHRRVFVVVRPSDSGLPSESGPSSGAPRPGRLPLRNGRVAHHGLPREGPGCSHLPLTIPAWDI
# T1 sequence (Q9Y5X5 whole entry): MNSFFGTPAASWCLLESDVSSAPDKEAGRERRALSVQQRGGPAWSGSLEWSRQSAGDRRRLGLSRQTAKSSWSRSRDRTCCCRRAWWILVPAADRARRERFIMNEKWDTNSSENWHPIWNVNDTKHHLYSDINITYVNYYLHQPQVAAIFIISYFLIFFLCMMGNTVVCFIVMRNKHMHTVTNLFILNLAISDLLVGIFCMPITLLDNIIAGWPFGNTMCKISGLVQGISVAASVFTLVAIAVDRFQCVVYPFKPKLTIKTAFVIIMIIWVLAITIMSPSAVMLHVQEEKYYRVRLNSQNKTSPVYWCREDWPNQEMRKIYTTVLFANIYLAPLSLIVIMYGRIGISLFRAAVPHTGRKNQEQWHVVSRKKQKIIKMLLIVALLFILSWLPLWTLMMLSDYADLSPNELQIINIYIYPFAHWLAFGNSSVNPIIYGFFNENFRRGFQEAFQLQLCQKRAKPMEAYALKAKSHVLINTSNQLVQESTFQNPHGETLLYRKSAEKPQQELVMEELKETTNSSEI
compound,measurement,setting,value
"Nc1ccc(-c2cccc(Cl)c2Cl)c(N)n1 [Compound 1j, 3-(2,3-dichlorophenyl)pyridine-2,6-diamine]",effect of compound tested alone (agonist activity),hNPFF2R,had no effect
same,pIC50,[1],6.30 to 7.00
same,Hyperalgesia index (HI) d1 to d7,"C57BF6/N male mice; daily morphine 10 mg/kg s.c., 1j 5 mg/kg oral or vehicle before morphine, FIG. 2B",0.1±3
same,"morphine analgesia at day 0, effect of co-administration","C57BF6/N male mice; mouse, in vivo",not significantly modified
same,peak of analgesia at day 0,"C57BF6/N male mice; mouse, in vivo",19±0.8
same,peak of analgesia at day 8,"C57BF6/N male mice; mouse, in vivo",14±0.9
same,morphine-induced hyperalgesia in NPFF1R KO mice,"[2]; NPFF1R KO, 1j 5 mg/kg oral before daily morphine 10 mg/kg s.c., FIG. 5B, C",did not show any significant effect
same,morphine-induced hyperalgesia in WT mice,"[2]; WT littermates, 1j 5 mg/kg oral before daily morphine 10 mg/kg s.c., FIG. 5B, C",significantly attenuated this hyperalgesia
same,morphine analgesia at day 8 in WT mice (tolerance),"[2]; WT littermates, morphine 5 mg/kg s.c., 1j 5 mg/kg oral, FIG. 5D",failed to restore morphine analgesia at day 8
